Consider 51 compounds from ChEMBL document CHEMBL4402608 (J Med Chem, 2020).

What all share (assay type): cell-based
Test [1] concerns the target T1, D(2) dopamine receptor (Homo sapiens, UniProt P14416). The test is described as follows: Antagonist activity at human D2R expressed in CHOK1 cells assessed as inhibition of dopamine-induced beta-arrestin recruitment measured after 120 mins by beta-galactosidase based PathHunter assay. On the technique in general: Activated receptors often draw arrestin, which recruitment assays turn into a signal.

In test [2] the target is T1, D(2) dopamine receptor. As to the kind of experiment: Agonist activity at human D2R expressed in CHOK1 cells assessed as induction of beta-arrestin recruitment measured after 90 mins by beta-galactosidase based PathHunter assay.
For the next test, the target named is D(3) dopamine receptor (Homo sapiens, UniProt P35462). The test is described as follows: Agonist activity at human D3R expressed in CHOK1 cells assessed as induction of beta-arrestin recruitment measured after 90 mins by beta-galactosidase based PathHunter assay.

Where only a bound is given, the exact number is not on record here.

In the case of `COc1ccc(C(=O)N2CCN(CCOc3ccccc3)CC2)cc1`, the IC50 (commonly the concentration needed to halve the response being measured) at D(2) dopamine receptor [1] (read-out: IC50) is over 100000 nM. For the same compound, the EC50 (usually the concentration at which the effect is half-maximal) at D(2) dopamine receptor [2] (read-out: EC50) was determined as 2300 nM.

On to `CCc1ccc(OCCN2CCN(C(=O)c3cc4ccccc4[nH]3)CC2)cc1`, for which the IC50 at D(2) dopamine receptor [1] (read-out: IC50) is over 50000 nM. For the same compound, on D(2) dopamine receptor [2], the 50% effective concentration (EC50) entry was “Not Active”.

With `CCc1ccc(OCCN2CCN(C(=O)c3ccc(OC)cc3)CC2)cc1`, at D(2) dopamine receptor [1] (read-out: IC50), the IC50 is over 50000 nM. The results for the EC50 result on D(2) dopamine receptor [2] and at D(3) dopamine receptor (read-out: EC50) were “Not Active” and 2600 nM, respectively. Take `COc1ccc(OCCN2CCN(S(=O)(=O)c3ccc(OC)cc3)CC2)cc1`: on D(2) dopamine receptor [1], the IC50 entry is “Not Active”. The EC50 on D(2) dopamine receptor [2] (read-out: EC50) was over 100000 nM; at D(3) dopamine receptor it was “Not Active”. In the case of `CC(C)(C)c1ccc(OCCN2CCN(C(=O)c3cc4ccccc4[nH]3)CC2)cc1`, the IC50 on D(2) dopamine receptor [1] (read-out: IC50) is over 100000 nM. Also, the EC50 result at D(2) dopamine receptor [2] and on D(3) dopamine receptor was “Not Active” each time.

Take `COc1ccc(OCCN2CCN(C(=O)c3cc4c(OC)cccc4[nH]3)CC2)cc1`: the IC50 at D(2) dopamine receptor [1] (read-out: IC50) was over 100000 nM. Also, the EC50 on D(2) dopamine receptor [2] (read-out: EC50) came to 5200 nM.

As to `COc1ccc(OCCCN2CCN(C(=O)c3cc4ccccc4[nH]3)CC2)cc1`, on D(3) dopamine receptor, the EC50 entry is recorded as “Not Active”.

Take `COc1ccc(C(=O)N2CCN(CCOc3cc(OC)cc(OC)c3)CC2)cc1`: at D(2) dopamine receptor [1] (read-out: IC50), the IC50 is over 50000 nM. Moreover, the EC50 result on D(2) dopamine receptor [2] and at D(3) dopamine receptor was “Not Active” in each case. `COc1ccc(SCCN2CCN(C(=O)c3cc4ccccc4[nH]3)CC2)cc1`: on D(2) dopamine receptor [1] (read-out: IC50), the IC50 is over 100000 nM. Further, the EC50 entry on D(2) dopamine receptor [2] and at D(3) dopamine receptor was “Not Active” in each case.

In the case of `COc1ccc(C(=O)N2CCN(CCOc3ccccc3OC)CC2)cc1`, the EC50 at D(3) dopamine receptor (read-out: EC50) was determined as 278 nM.

As to `O=C(c1cc2ccc(Cl)cc2[nH]1)N1CCN(CCOc2cccnc2)CC1`, at D(2) dopamine receptor [1], the IC50 result is given as “Not Active”. Moreover, the EC50 on D(2) dopamine receptor [2] (read-out: EC50) came to 183 nM. Regarding `COc1ccc2cc(C(=O)N3CCN(CCOc4cccnc4)CC3)[nH]c2c1`, the EC50 at D(3) dopamine receptor (read-out: EC50) came to 6.4 nM.

With `COc1ccc(OCCN(C)CCN(C)C(=O)c2ccc(OC)cc2)cc1`, the EC50 result on D(3) dopamine receptor was “Not Active”. Consider `COc1ccc(OCCN2CCN(C(=O)c3cc4c(C)cccc4[nH]3)CC2)cc1`, for which the EC50 at D(3) dopamine receptor (read-out: EC50) came to 266 nM. Regarding `COc1ccc(OCCN2CCN(C(=O)c3ccc(OC)cc3)C(C)C2)cc1` (configuration not stated), on D(2) dopamine receptor [1] (read-out: IC50), the IC50 is over 100000 nM. The concentration giving a half-maximal response (EC50) on D(2) dopamine receptor [2] (read-out: EC50) turned out to be 4200 nM. Regarding `Cc1cc(OCCN2CCN(C(=O)c3cc4ccccc4[nH]3)CC2)ccc1Cl`, the EC50 on D(3) dopamine receptor (read-out: EC50) amounted to 114 nM. Take `COc1ccc(OCCC2CCN(C(=O)c3ccc(OC)cc3)CC2)cc1`: the IC50 result on D(2) dopamine receptor [1] was “Not Active”. Further, the EC50 result on D(2) dopamine receptor [2] and on D(3) dopamine receptor was “Not Active” in each case. On to `O=C(c1cc2cc(Cl)ccc2[nH]1)N1CCN(CCOc2cccnc2)CC1`, for which the IC50 result on D(2) dopamine receptor [1] was “Not Active”. For the same compound, the EC50 at D(2) dopamine receptor [2] (read-out: EC50) came to 1400 nM.

For `COc1ccc(OCCN2CCN(C(=O)c3cc4ccc(Cl)cc4[nH]3)CC2)cc1`, the EC50 at D(3) dopamine receptor (read-out: EC50) is 225 nM.

Consider `Cc1c(C(=O)N2CCN(CCOc3cccnc3)CC2)[nH]c2ccccc12`, for which the EC50 at D(3) dopamine receptor (read-out: EC50) was determined as 80 nM. Turning to `Cc1cccc2cc(C(=O)N3CCN(CCOc4cccnc4)CC3)[nH]c12`, the EC50 at D(3) dopamine receptor (read-out: EC50) came out at 25.7 nM. Take `O=C(c1cc2ccccc2s1)N1CCN(CCOc2cccnc2)CC1`: at D(3) dopamine receptor (read-out: EC50), the EC50 worked out at 13.3 nM. Turning to `COc1ccc(OCCN2CCN(CC(=O)c3cc4ccccc4[nH]3)CC2)cc1`, the IC50 entry on D(2) dopamine receptor [1] was “Not Active”. In addition, the EC50 result on D(2) dopamine receptor [2] and on D(3) dopamine receptor was “Not Active” each time. Regarding `COc1ccc(N(C)CCN2CCN(C(=O)c3cc4ccccc4[nH]3)CC2)cc1`, the IC50 at D(2) dopamine receptor [1] (read-out: IC50) was over 100000 nM. Further, the EC50 result on D(2) dopamine receptor [2] is “Not Active”. On to `COc1cccc(OCCN2CCN(C(=O)c3nc4ccccc4[nH]3)CC2)c1`, for which the EC50 on D(3) dopamine receptor (read-out: EC50) came to 285 nM. Regarding `COc1ccc(OCCN2CCN(C(=O)c3cc4cccnc4[nH]3)CC2)cc1`, the EC50 on D(3) dopamine receptor (read-out: EC50) was 167 nM.

In the case of `COc1cccc(OCCN2CCN(C(=O)c3cc4ccccc4[nH]3)CC2)c1`, at D(3) dopamine receptor (read-out: EC50), the EC50 worked out at 33.8 nM.

In the case of `O=C(c1cc2c(Cl)cccc2[nH]1)N1CCN(CCOc2cccnc2)CC1`, on D(2) dopamine receptor [1], the IC50 result is recorded as “Not Active”. Also, the EC50 on D(2) dopamine receptor [2] (read-out: EC50) was found to be 217 nM. `COc1ccc(OCCN2CCN(C(=O)c3ccc4[nH]ccc4c3)CC2)cc1`: the IC50 at D(2) dopamine receptor [1] (read-out: IC50) stood at 4600 nM. Further, at D(2) dopamine receptor [2] (read-out: EC50), the EC50 amounted to 2500 nM. On to `COc1ccc(OCCN2CCN(C(=O)c3cc4ccccc4s3)CC2)cc1`, for which, at D(3) dopamine receptor (read-out: EC50), the EC50 was 3300 nM. For `O=C(c1cc2ccccc2[nH]1)N1CCN(CCOc2ccc([N+](=O)[O-])cc2)CC1`, the IC50 result at D(2) dopamine receptor [1] is reported as “Not Active”. Besides, the EC50 entry at D(2) dopamine receptor [2] is given as “Not Active”. As for `O=C(c1cc2cccc(Cl)c2[nH]1)N1CCN(CCOc2cccnc2)CC1`, the IC50 entry at D(2) dopamine receptor [1] was “Not Active”. The EC50 on D(2) dopamine receptor [2] (read-out: EC50) was determined as 617 nM.

Take `COc1ccc(OCCN2CCN(C(=O)c3cc4ncccc4[nH]3)CC2)cc1`: the IC50 result on D(2) dopamine receptor [1] is “Not Active”. On D(2) dopamine receptor [2] (read-out: EC50), the EC50 is over 100000 nM. On to `COc1ccc(C(=O)N2CCN(CCOc3ccc(OC(F)(F)F)cc3)CC2)cc1`, for which the IC50 at D(2) dopamine receptor [1] (read-out: IC50) was over 50000 nM. For the same compound, the concentration giving a half-maximal response (EC50) entry at D(2) dopamine receptor [2] and at D(3) dopamine receptor was “Not Active” in each case. `COc1ccc(OCCN2CCN(C(=O)c3c[nH]c4ccccc34)CC2)cc1`: the EC50 on D(3) dopamine receptor (read-out: EC50) was 210 nM. Turning to `O=C(c1n[nH]c2ccccc12)N1CCN(CCOc2cccnc2)CC1`, the IC50 result at D(2) dopamine receptor [1] is “Not Active”. On D(2) dopamine receptor [2] (read-out: EC50), the EC50 was 4100 nM. As to `COc1ccc(OCCC2CCN(C(=O)c3cc4ccccc4[nH]3)CC2)cc1`, on D(2) dopamine receptor [1], the IC50 entry was “Not Active”. The EC50 result at D(2) dopamine receptor [2] and on D(3) dopamine receptor was “Not Active” each time. For `COc1ccc(OCCN2CCN(C(=O)c3cc4cc(Cl)ccc4[nH]3)CC2)cc1`, the IC50 result on D(2) dopamine receptor [1] is “Not Active”. Moreover, on D(2) dopamine receptor [2], the EC50 result is recorded as “Not Active”. `O=C(c1cc2ccccc2[nH]1)N1CCN(CCOc2ccc3[nH]ccc3c2)CC1`: the EC50 at D(3) dopamine receptor (read-out: EC50) stood at 60.9 nM. The same measure, in the same setting: next, `COc1ccc(C(=O)N2CCN(CCOc3cccc(OC)c3)CC2)cc1`: 98 nM; `O=C(c1cc2ccncc2[nH]1)N1CCN(CCOc2cccnc2)CC1`: 81 nM. For the compound `COc1ccc(OCCN2CCN(c3ccc(OC)cc3)CC2)cc1`, the IC50 on D(2) dopamine receptor [1] (read-out: IC50) was over 50000 nM. The EC50 entry at D(2) dopamine receptor [2] and on D(3) dopamine receptor was “Not Active” in each case.

Regarding `COc1ccc(C(=O)N2CCN(CCOc3cccnc3)CC2)cc1`, the IC50 at D(2) dopamine receptor [1] (read-out: IC50) was over 100000 nM. The values for the EC50 at D(2) dopamine receptor [2] (read-out: EC50) and at D(3) dopamine receptor (read-out: EC50) were 2900 nM and 17 nM, respectively.

With `O=C(c1nc2ccccc2[nH]1)N1CCN(CCOc2cccnc2)CC1`, at D(2) dopamine receptor [1], the IC50 entry is reported as “Not Active”. Further, on D(2) dopamine receptor [2] (read-out: EC50), the EC50 stood at 2400 nM. With `Cc1cccc2[nH]c(C(=O)N3CCN(CCOc4cccnc4)CC3)cc12`, the IC50 result on D(2) dopamine receptor [1] is reported as “Not Active”. Further, on D(2) dopamine receptor [2] (read-out: EC50), the EC50 is 180 nM. For `COc1ccc(OCCN2CCN(C(=O)c3cccc(OC)c3)CC2)cc1`, the EC50 on D(3) dopamine receptor (read-out: EC50) is 550 nM. As to `O=C(c1cc2ccccc2[nH]1)N1CCN(CCOc2ccc3c(c2)OCO3)CC1`, the concentration giving a half-maximal response (EC50) on D(3) dopamine receptor (read-out: EC50) was determined as 290 nM. Turning to `COc1ccc(OCCCCN2CCN(C(=O)c3cc4ccccc4[nH]3)CC2)cc1`, at D(3) dopamine receptor, the EC50 result is “Not Active”. Take `O=C(c1cc2ccccc2[nH]1)N1CCN(CCOc2ccc(Br)cc2)CC1`: on D(2) dopamine receptor [1] (read-out: IC50), the IC50 is over 100000 nM. The EC50 entry at D(2) dopamine receptor [2] is “Not Active”.

Consider `COc1ccc2[nH]c(C(=O)N3CCN(CCOc4cccnc4)CC3)cc2c1`, for which the 50% inhibitory concentration (IC50) result on D(2) dopamine receptor [1] is on record as “Not Active”. Moreover, the EC50 on D(2) dopamine receptor [2] (read-out: EC50) is 2600 nM. On to `COc1ccc(OCC(C)N2CCN(C(=O)c3ccc(OC)cc3)CC2)cc1` (racemic), for which the IC50 at D(2) dopamine receptor [1] (read-out: IC50) is over 100000 nM. In addition, the EC50 result on D(2) dopamine receptor [2] is recorded as “Not Active”.
